Measured values taken from publication PMC9138151, “Bioactive Phytochemicals of Citrus reticulata Seeds—An Example of Waste Product Rich in Healthy Skin Promoting Agents” (Antioxidants, 2022).
Values belong to the compound of their own block, whether it stands above or below them.

Key:
[1] = system: cutaneous wound healing; set-up: method as in PMID 20193736; details: cited from earlier work
[2] = system: tissue transglutaminase-2, TGF-1, and vascular endothelial growth factor; set-up: method as in PMID 20590611; details: sham OVX rats; cited from earlier work
[3] = target: Xanthine oxidase (Homo sapiens, UniProt P47989); test: In vitro assay of xanthine oxidase activity; format: biochemical; details: for IC50: ± SD, triplicate
Xanthine oxidase, sequence (P47989 whole entry, species assumed): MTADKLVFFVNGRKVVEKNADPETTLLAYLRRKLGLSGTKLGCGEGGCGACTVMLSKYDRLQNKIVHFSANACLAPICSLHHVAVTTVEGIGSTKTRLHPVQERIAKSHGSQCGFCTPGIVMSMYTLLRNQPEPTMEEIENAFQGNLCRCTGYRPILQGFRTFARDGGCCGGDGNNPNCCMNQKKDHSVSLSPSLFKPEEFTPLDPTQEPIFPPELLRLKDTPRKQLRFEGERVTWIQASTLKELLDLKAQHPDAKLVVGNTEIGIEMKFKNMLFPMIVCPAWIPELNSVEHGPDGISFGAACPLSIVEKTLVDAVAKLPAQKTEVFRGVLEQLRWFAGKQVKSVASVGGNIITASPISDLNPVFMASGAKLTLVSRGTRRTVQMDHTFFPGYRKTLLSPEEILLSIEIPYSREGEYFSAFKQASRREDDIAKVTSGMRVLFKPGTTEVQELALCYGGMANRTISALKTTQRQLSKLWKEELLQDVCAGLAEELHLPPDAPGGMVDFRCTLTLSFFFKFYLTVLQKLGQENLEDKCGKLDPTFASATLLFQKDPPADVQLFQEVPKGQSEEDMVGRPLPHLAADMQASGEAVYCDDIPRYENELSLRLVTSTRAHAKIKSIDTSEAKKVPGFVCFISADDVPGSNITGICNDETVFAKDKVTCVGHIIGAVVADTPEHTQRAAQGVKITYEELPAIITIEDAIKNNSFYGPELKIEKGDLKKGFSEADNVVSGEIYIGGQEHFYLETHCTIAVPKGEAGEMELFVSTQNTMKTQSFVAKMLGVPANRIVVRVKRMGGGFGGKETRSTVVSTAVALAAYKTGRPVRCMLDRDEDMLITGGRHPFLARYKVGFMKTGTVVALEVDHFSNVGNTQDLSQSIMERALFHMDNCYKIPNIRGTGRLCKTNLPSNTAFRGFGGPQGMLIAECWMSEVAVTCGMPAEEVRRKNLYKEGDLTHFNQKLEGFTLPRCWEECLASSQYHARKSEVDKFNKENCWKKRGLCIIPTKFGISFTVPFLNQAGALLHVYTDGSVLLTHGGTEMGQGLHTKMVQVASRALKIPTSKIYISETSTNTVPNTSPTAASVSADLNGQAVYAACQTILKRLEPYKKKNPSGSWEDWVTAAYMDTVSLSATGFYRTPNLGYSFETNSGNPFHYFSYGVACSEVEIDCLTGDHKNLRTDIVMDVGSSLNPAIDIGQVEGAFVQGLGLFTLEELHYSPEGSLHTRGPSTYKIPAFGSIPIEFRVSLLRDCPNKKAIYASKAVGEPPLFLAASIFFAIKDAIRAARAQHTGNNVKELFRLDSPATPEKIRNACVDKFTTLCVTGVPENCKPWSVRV
Description: Xanthine oxidase (XO) inhibitory potential was carried out according to the previously described method. The color produced because of hydrogen peroxide release during the process of oxidation of XO was measured at 570 nm using the plate reader EPOCH™ “MICROPLATE READER (BIOTEK)”. Forty-four microliters of xanthine oxidase buffer were mixed with 2 µL of xanthine substrate solution and 2 µL of XO. […] was applied as a positive control. This experiment was performed in triplicate.

[4] = target: Tyrosinase (Agaricus bisporus, UniProt C7FF04); test: In vitro assay of tyrosinase activity (DOPAchrome); format: biochemical
Tyrosinase, sequence (C7FF04 1-392): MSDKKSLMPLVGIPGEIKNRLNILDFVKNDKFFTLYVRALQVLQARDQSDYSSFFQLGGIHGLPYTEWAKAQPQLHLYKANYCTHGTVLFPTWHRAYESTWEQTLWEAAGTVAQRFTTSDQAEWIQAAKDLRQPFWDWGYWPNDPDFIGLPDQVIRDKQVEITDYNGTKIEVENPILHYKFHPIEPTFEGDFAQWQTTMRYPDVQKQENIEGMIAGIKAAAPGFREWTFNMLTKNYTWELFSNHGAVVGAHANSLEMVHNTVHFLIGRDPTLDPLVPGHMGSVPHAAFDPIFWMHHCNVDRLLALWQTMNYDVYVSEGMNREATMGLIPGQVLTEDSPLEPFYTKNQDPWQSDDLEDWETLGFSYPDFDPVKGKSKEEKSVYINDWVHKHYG
Description: The tyrosinase inhibitory activity was measured from the following equation: inhibitory activity (%) = (1 − A/B) × 100, (9) where A and B are the absorbance of the mixture in presence or absence of test flavonoid, respectively. Every experiment was done in triplicate.

[5] = system: injured skin; details: cited from earlier work
[6] = system: wound healing; set-up: method as in PMID 28989011; details: cited from earlier work
[7] = system: incisional and excisional wounds; details: topical application; diabetic and non-diabetic rats; cited from earlier work

SMILES: O=c1c(-c2ccc(O)cc2)coc2cc(O)cc(O)c12 [Genistein]
wound healing [1]: accelerated wound healing
effect on tissue transglutaminase-2, TGF-1 and vascular endothelial growth factor [2]: reduced tissue transglutaminase-2, TGF-1, and vascular endothelial growth factor

SMILES: O=c1c(O)c(-c2ccc(O)cc2)oc2cc(O[C@@H]3O[C@H](CO)[C@@H](O)[C@H](O)[C@H]3O)cc(O)c12 [Compound 3, kaempferol-7-O-β-D-glucopyranoside]
IC50 [3]: 6.39 ± 0.36 µM
activity against tyrosinase (in words) [4]: inactive or weakly active

SMILES: COc1ccc([C@@H]2CC(=O)c3c(O)cc(O[C@@H]4O[C@H](CO[C@@H]5O[C@@H](C)[C@H](O)[C@@H](O)[C@H]5O)[C@@H](O)[C@H](O)[C@H]4O)cc3O2)cc1O [Hesperidin]
healing of injured skin [5]: sufficient healing benefits on injured skin

activity against xanthine oxidase (in words) [3]: weak or inactivity
IC50 [3]: 73.7 ± 2.33 µM
activity against tyrosinase (in words) [4]: inactive or weakly active
SMILES: O=c1c(O)c(-c2ccc(O[C@@H]3O[C@H](CO)[C@@H](O)[C@H](O)[C@H]3O)cc2)oc2cc(O)cc(O)c12 [Compound 2, kaempferol-4′-O-β-D-glucopyranoside]

SMILES: O=c1c(-c2ccc(O)cc2)c(O)oc2cc(O)cc(O)c12 [Compound 4, 2-hydroxygenistein]
wound healing [6]: promote wound healing

SMILES: O=c1c(O)c(-c2ccc(O)cc2)oc2cc(O)cc(O)c12 [Compound 1, kaempferol]
wound healing effect [7]: healing effects

activity against xanthine oxidase (in words) [3]: weak or inactivity
IC50 [3]: > 100 µM
SMILES: COc1ccc([C@@H]2CC(=O)c3c(O)cc(O)cc3O2)cc1O [Compound 5, hesperetin]

IC50 [3]: 3.63 ± 0.18 µM
SMILES: N[C@@H](Cn1ccc(=O)c(O)c1)C(=O)O [L-mimosine, reference compound]
